The source of these data is PubChem BioAssay (NCI).

Each structure is given as a SMILES string.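 Cells were grown in 96-well plates and exposed to each compound for 48 hours at five concentrations; endpoints were interpolated linearly between bracketing concentrations, or set to the highest concentration if not reached. Here, GI50 denotes the concentration required for 50% inhibition of growth. TGI is the concentration that stops growth completely.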 Some results are limits rather than exact numbers.

Test systems include 786-0 renal; A549 NSCLC; COLO 205 colon; KM12 colon; LOX IMVI melanoma; NCI-H23 lung; NCI/ADR-RES ovarian; RXF 393 renal; SF-268 CNS; U251 CNS.
Common to all, as to assay: NCI-60 cell line screen, 48 h

Take `N=c1oc2ccccc2cc1C(=O)NC12CC3CC(CC(C3)C1)C2`: the TGI was 9.92 µM in the assay with 786-0 renal; 73.1 µM in the assay with A549 NSCLC; 32.7 µM in the assay on COLO 205 colon; 52.4 µM with KM12 colon; greater than 59.8 µM with LOX IMVI melanoma; greater than 91.6 µM in the assay on NCI-H23 lung. Moreover, the TGI in the assay on NCI/ADR-RES ovarian was greater than 100 µM; in the assay with RXF 393 renal it was 24.2 µM; with SF-268 CNS, greater than 100 µM; in the assay on U251 CNS, 43.8 µM.

For the compound `O=c1[nH]c(=O)n(C2COC(CO)C2O)cc1F` (configuration not stated), the TGI with 786-0 renal, with A549 NSCLC, in the assay on COLO 205 colon, in the assay on KM12 colon, in the assay with LOX IMVI melanoma and in the assay with NCI-H23 lung was greater than 100 µM throughout. The TGI in the assay with NCI/ADR-RES ovarian was greater than 100 µM; with RXF 393 renal, 60.8 µM; in the assay with SF-268 CNS it was greater than 100 µM; in the assay with U251 CNS, greater than 100 µM.

For the compound `CC1=C/C(=N\NC(N)=S)C(C(O)(C(F)(F)F)C(F)(F)F)C(C)(C)C1` (configuration not stated), the TGI in the assay on 786-0 renal, in the assay on A549 NSCLC, in the assay on COLO 205 colon, with KM12 colon, in the assay with LOX IMVI melanoma and with NCI-H23 lung was greater than 10 µM throughout. Moreover, the TGI with NCI/ADR-RES ovarian, with RXF 393 renal, in the assay with SF-268 CNS and in the assay on U251 CNS was greater than 10 µM in each case.

Consider `CCOC(=O)CCC(NC(=O)C(N)Cc1ccc(N(CCCl)CCCl)cc1)C(=O)OCC` (configuration not stated), for which the TGI in the assay on 786-0 renal is 2.08 µM; with A549 NSCLC, greater than 33.4 µM; with COLO 205 colon it was 1.85 µM; with KM12 colon, 3.43 µM; in the assay on LOX IMVI melanoma, 1.63 µM; with NCI-H23 lung, 1.68 µM. The TGI in the assay on NCI/ADR-RES ovarian was determined as 19 µM; in the assay with RXF 393 renal it was 0.739 µM; in the assay on SF-268 CNS, 4 µM; in the assay with U251 CNS, 7.41 µM. The GI50 in the assay with NCI/ADR-RES ovarian is 3.52 µM; in the assay on RXF 393 renal, 0.17 µM.

With `O=C1C(Br)=C(Br)C(=O)c2ccc(=O)ccc21`, the TGI in the assay on 786-0 renal is 32.7 µM; in the assay on A549 NSCLC it was greater than 100 µM; in the assay with COLO 205 colon, 26.4 µM; in the assay on KM12 colon it was greater than 100 µM; in the assay with LOX IMVI melanoma, 41.2 µM; in the assay with NCI-H23 lung, 43.1 µM. The TGI with NCI/ADR-RES ovarian was 53.3 µM; in the assay on RXF 393 renal, 36.3 µM; in the assay on SF-268 CNS, greater than 77 µM; in the assay on U251 CNS, 61.4 µM.

Consider `Nc1ncc2c(n1)-c1ccccc1OC2N1CCCCC1` (configuration not stated), for which the TGI in the assay on 786-0 renal, with A549 NSCLC, in the assay with COLO 205 colon, with KM12 colon, with LOX IMVI melanoma and with NCI-H23 lung was greater than 100 µM throughout. Moreover, the TGI in the assay on NCI/ADR-RES ovarian, in the assay with RXF 393 renal, in the assay with SF-268 CNS and with U251 CNS was greater than 100 µM throughout.

`COc1ccc2oc3c(C)cc4c(OC)nnc(OC)c4c3c2c1`: the TGI in the assay on 786-0 renal, in the assay on A549 NSCLC, in the assay with COLO 205 colon, in the assay with KM12 colon, in the assay on LOX IMVI melanoma and in the assay on NCI-H23 lung was greater than 100 µM in each case. Further, the TGI in the assay with NCI/ADR-RES ovarian was greater than 100 µM; in the assay on RXF 393 renal it was greater than 100 µM; with SF-268 CNS, greater than 100 µM; in the assay with U251 CNS, 14.8 µM.

On to `O=C1c2cccc3cc([N+](=O)[O-])cc(c23)C(=O)N1Nc1ccc([N+](=O)[O-])cc1[N+](=O)[O-]`, for which the TGI is 35.7 µM with 786-0 renal; greater than 31.6 µM with A549 NSCLC; 18.3 µM in the assay with COLO 205 colon; 26.3 µM in the assay with KM12 colon; 19.4 µM with LOX IMVI melanoma; 35.7 µM in the assay with NCI-H23 lung. The TGI was greater than 31.6 µM in the assay with NCI/ADR-RES ovarian, greater than 31.6 µM in the assay with RXF 393 renal, greater than 31.6 µM in the assay on SF-268 CNS and 29.3 µM in the assay on U251 CNS.

For the compound `C[N+]12C=CC=C1C(N1CCCC1)c1scc(-c3ccc(Br)cc3)c12` (configuration not stated), the TGI is greater than 100 µM in the assay on 786-0 renal; greater than 100 µM in the assay on A549 NSCLC; 39.8 µM in the assay on COLO 205 colon; 25.9 µM with KM12 colon; greater than 100 µM in the assay with LOX IMVI melanoma; 32.4 µM in the assay on NCI-H23 lung. In addition, the TGI was greater than 100 µM in the assay on NCI/ADR-RES ovarian, 43.5 µM in the assay on RXF 393 renal, 37 µM in the assay on SF-268 CNS and 24.7 µM in the assay with U251 CNS.

With `COc1ccccc1CC(=O)C(O)(C(F)(F)F)C(F)(F)F`, the TGI in the assay on 786-0 renal, in the assay with A549 NSCLC, in the assay on COLO 205 colon, with KM12 colon, in the assay with LOX IMVI melanoma and in the assay on NCI-H23 lung was greater than 100 µM throughout. The TGI in the assay on NCI/ADR-RES ovarian, in the assay with RXF 393 renal, with SF-268 CNS and in the assay on U251 CNS was greater than 100 µM throughout.

Take `COc1cc2c(/C=C3/C(=O)Nc4cccc(Cl)c43)c(Cl)[nH]c2cc1C`: the TGI in the assay on 786-0 renal is 4.15 µM; in the assay on A549 NSCLC, 6.23 µM; in the assay with COLO 205 colon it was 4.1 µM; with KM12 colon it was 3.72 µM; in the assay with LOX IMVI melanoma, 3.68 µM; in the assay with NCI-H23 lung, 9.36 µM. Besides, the TGI came out at 3.45 µM in the assay on NCI/ADR-RES ovarian, 7.41 µM with RXF 393 renal, 19.8 µM in the assay with SF-268 CNS and 3.99 µM in the assay with U251 CNS.

Turning to `O=C(O)Cc1ccc([N+](=O)[O-])cc1[N+](=O)[O-]`, the TGI with 786-0 renal, in the assay on A549 NSCLC, with COLO 205 colon, in the assay on KM12 colon, in the assay on LOX IMVI melanoma and in the assay on NCI-H23 lung was greater than 100 µM in each case. Further, the TGI in the assay on NCI/ADR-RES ovarian, in the assay with RXF 393 renal, with SF-268 CNS and in the assay on U251 CNS was greater than 100 µM in each case.

With `O=C(O)C1C2c3ccccc3C(c3ccccc32)C1C(=O)NCC1CC1` (configuration not stated), the TGI in the assay on 786-0 renal, with A549 NSCLC, with COLO 205 colon, with KM12 colon, with LOX IMVI melanoma and in the assay with NCI-H23 lung was greater than 100 µM in each case. Besides, the TGI in the assay with NCI/ADR-RES ovarian, in the assay on RXF 393 renal, with SF-268 CNS and with U251 CNS was greater than 100 µM in each case.
